Reference: the NIST ThermoML archive (doi:10.1021/acs.jced.7b00106)
Values joined by “and” are separate entries in the source; they are usually repeats but may differ in a detail not shown here. Equal entries are not always repeated.

Conditions: Fluid (supercritical or subcritical phases), Hot wire method

FC(F)(F)/C=C/Cl [(E)-1-chloro-3,3,3-trifluoroprop-1-ene]
Conditions	thermal conductivity
451.94 K, 2166 kPa	0.02385 W/m/K
451.94 K, 5208 kPa	0.04623 W/m/K
451.95 K, 2165 kPa	0.02394 W/m/K
451.98 K, 987 kPa	0.02333 W/m/K
451.98 K, 990 kPa	0.0233 W/m/K
451.98 K, 3273 kPa	0.02726 W/m/K
451.99 K, 3272 kPa	0.02725 W/m/K
452.01 K, 1670 kPa	0.02346 W/m/K
452.01 K, 1671 kPa	0.0235 W/m/K
452.01 K, 2616 kPa	0.02474 W/m/K
452.01 K, 2617 kPa	0.02483 W/m/K
452.03 K, 5206 kPa	0.0467 W/m/K
452.03 K, 5207 kPa	0.04676 W/m/K
452.06 K, 2990 kPa	0.026 W/m/K
452.06 K, 2991 kPa	0.02595 W/m/K
452.09 K, 2165 kPa	0.02407 W/m/K and 0.024 W/m/K
452.12 K, 5207 kPa	0.0469 W/m/K
452.13 K, 5206 kPa	0.04663 W/m/K
452.14 K, 7293 kPa	0.04964 W/m/K
452.14 K, 7296 kPa	0.04969 W/m/K
452.15 K, 987 kPa	0.02338 W/m/K
452.16 K, 988 kPa	0.02337 W/m/K
452.16 K, 2617 kPa	0.02488 W/m/K
452.17 K, 1671 kPa	0.02356 W/m/K
452.17 K, 2617 kPa	0.02487 W/m/K
452.19 K, 5579 kPa	0.04728 W/m/K
452.2 K, 2991 kPa	0.02606 W/m/K
452.2 K, 5578 kPa	0.0472 W/m/K
452.21 K, 2990 kPa	0.026 W/m/K
452.23 K, 5207 kPa	0.04713 W/m/K
452.24 K, 5208 kPa	0.0472 W/m/K
452.25 K, 2165 kPa	0.024 W/m/K
452.29 K, 5577 kPa	0.04741 W/m/K
452.3 K, 5578 kPa	0.04745 W/m/K
452.31 K, 7293 kPa	0.04973 W/m/K
452.32 K, 7296 kPa	0.0498 W/m/K
452.33 K, 988 kPa	0.0233 W/m/K
452.33 K, 2615 kPa	0.02494 W/m/K
452.33 K, 2618 kPa	0.02493 W/m/K
452.33 K, 6080 kPa	0.04801 W/m/K
452.33 K, 6081 kPa	0.04806 W/m/K
452.34 K, 988 kPa	0.02333 W/m/K
452.34 K, 1671 kPa	0.02345 W/m/K
452.35 K, 1672 kPa	0.02348 W/m/K
452.36 K, 22580 kPa	0.06316 W/m/K
452.41 K, 5578 kPa	0.04763 W/m/K
452.42 K, 2166 kPa	0.02413 W/m/K
452.42 K, 2167 kPa	0.02408 W/m/K
452.42 K, 5577 kPa	0.04756 W/m/K
452.43 K, 12588 kPa	0.05554 W/m/K
452.43 K, 12589 kPa	0.05558 W/m/K
452.46 K, 18530 kPa	0.06032 W/m/K
452.46 K, 18535 kPa	0.06035 W/m/K
452.48 K, 7729 kPa	0.0503 W/m/K
452.48 K, 7733 kPa	0.05033 W/m/K
452.49 K, 10507 kPa	0.05349 W/m/K
452.5 K, 7296 kPa	0.04992 W/m/K
452.5 K, 7299 kPa	0.04984 W/m/K
452.51 K, 6079 kPa	0.04861 W/m/K
452.51 K, 6081 kPa	0.04828 W/m/K
452.51 K, 15249 kPa	0.05785 W/m/K
452.52 K, 10513 kPa	0.05353 W/m/K
452.52 K, 15256 kPa	0.05787 W/m/K
452.52 K, 22575 kPa	0.06312 W/m/K
452.52 K, 22580 kPa	0.06313 W/m/K
452.53 K, 989 kPa	0.02342 W/m/K
452.53 K, 5576 kPa	0.04776 W/m/K
452.53 K, 5577 kPa	0.0478 W/m/K
452.53 K, 6779 kPa	0.0491 W/m/K
452.53 K, 6780 kPa	0.0491 W/m/K
452.54 K, 985 kPa	0.02339 W/m/K
452.54 K, 1671 kPa	0.02355 W/m/K
452.54 K, 1672 kPa	0.02352 W/m/K
452.58 K, 8954 kPa	0.0518 W/m/K
452.58 K, 8958 kPa	0.05186 W/m/K
452.61 K, 12577 kPa	0.05553 W/m/K
452.61 K, 12585 kPa	0.05555 W/m/K
452.61 K, 18524 kPa	0.06031 W/m/K
452.63 K, 18535 kPa	0.06055 W/m/K
452.65 K, 5576 kPa	0.04794 W/m/K
452.65 K, 5578 kPa	0.04801 W/m/K
452.67 K, 7732 kPa	0.0504 W/m/K
452.67 K, 7733 kPa	0.05035 W/m/K
452.68 K, 10507 kPa	0.05353 W/m/K
452.68 K, 10512 kPa	0.05353 W/m/K
452.69 K, 6081 kPa	0.04841 W/m/K
452.69 K, 7300 kPa	0.05001 W/m/K
452.69 K, 7301 kPa	0.04996 W/m/K
452.69 K, 15244 kPa	0.05785 W/m/K
452.69 K, 22569 kPa	0.06311 W/m/K
452.69 K, 22574 kPa	0.06307 W/m/K
452.7 K, 6080 kPa	0.04844 W/m/K
452.71 K, 6780 kPa	0.04921 W/m/K
452.72 K, 6782 kPa	0.04926 W/m/K
452.75 K, 990 kPa	0.02344 W/m/K
452.76 K, 988 kPa	0.02344 W/m/K
452.77 K, 8956 kPa	0.05187 W/m/K and 0.05189 W/m/K
452.79 K, 18524 kPa	0.0603 W/m/K
452.79 K, 18533 kPa	0.06034 W/m/K
452.8 K, 12582 kPa	0.05559 W/m/K
452.86 K, 7730 kPa	0.05046 W/m/K
452.86 K, 7733 kPa	0.05047 W/m/K
452.87 K, 10511 kPa	0.05358 W/m/K
452.87 K, 22562 kPa	0.06294 W/m/K
452.88 K, 10507 kPa	0.05361 W/m/K
452.88 K, 15241 kPa	0.05786 W/m/K
452.88 K, 15242 kPa	0.05782 W/m/K
452.88 K, 22559 kPa	0.06307 W/m/K
452.89 K, 6080 kPa	0.04865 W/m/K
452.89 K, 6081 kPa	0.04866 W/m/K
452.9 K, 7299 kPa	0.0501 W/m/K
452.9 K, 7305 kPa	0.05013 W/m/K
452.91 K, 6780 kPa	0.04939 W/m/K
452.91 K, 6781 kPa	0.04936 W/m/K
452.96 K, 8959 kPa	0.05193 W/m/K
452.97 K, 8955 kPa	0.0519 W/m/K
452.98 K, 18519 kPa	0.06033 W/m/K
452.99 K, 12573 kPa	0.05553 W/m/K
452.99 K, 12587 kPa	0.05557 W/m/K
453.06 K, 7731 kPa	0.05059 W/m/K
453.06 K, 22554 kPa	0.06303 W/m/K
453.06 K, 22568 kPa	0.06306 W/m/K
453.07 K, 7733 kPa	0.05056 W/m/K
453.07 K, 10506 kPa	0.05359 W/m/K
453.07 K, 15242 kPa	0.05784 W/m/K
453.08 K, 10511 kPa	0.05377 W/m/K
453.08 K, 15250 kPa	0.05787 W/m/K
453.1 K, 6079 kPa	0.04859 W/m/K
453.12 K, 6779 kPa	0.0495 W/m/K
453.12 K, 6780 kPa	0.04953 W/m/K
453.17 K, 18517 kPa	0.06031 W/m/K
453.17 K, 18518 kPa	0.06033 W/m/K
453.18 K, 8956 kPa	0.05196 W/m/K
453.18 K, 8959 kPa	0.05204 W/m/K
453.2 K, 12578 kPa	0.05564 W/m/K
453.2 K, 12584 kPa	0.05564 W/m/K
453.27 K, 7731 kPa	0.05062 W/m/K
453.27 K, 10508 kPa	0.05365 W/m/K
453.28 K, 7728 kPa	0.05065 W/m/K
453.28 K, 10506 kPa	0.05366 W/m/K
453.28 K, 15236 kPa	0.05778 W/m/K
453.28 K, 15246 kPa	0.05788 W/m/K
453.33 K, 6776 kPa	0.0497 W/m/K
453.33 K, 6780 kPa	0.04971 W/m/K
453.39 K, 8959 kPa	0.05209 W/m/K
